{
  "source": "patent US20250120912A1",
  "about": "“SYNERGISTIC NANOMEDICINE DELIVERING TOPOISOMERASE I TOXIN (SN-38) AND INHIBITORS OF POLYNUCLEOTIDE KINASE 3'-PHOSPHATASE (PNKP) FOR ENHANCED TREATMENT OF COLORECTAL CANCER” (THE GOVERNORS OF THE UNIVERSITY OF ALBERTA, priority 2021, published 2025)",
  "key": {"HCT116 [1]": {"tested_on": "HCT116", "assay": "In vitro cytotoxicity assay (MTS)", "experimental": "(§2) Two CRC cell lines, HCT116 and HT-29 originally purchased from ATCC were used. The cells were cultured at 37° C. in 5% CO2 in a humidified incubator in a 1:1 mixture of Dulbecco's modified Eagle medium and F12 (DMEM/F12) supplemented with 10% FBS, 50 U/mL penicillin, 50 mg/mL streptomycin, 2 mmol/L L-glutamine, 0.1 mmol/L nonessential amino acids, and 1 mmol/L sodium pyruvate.\n(§3) In brief, 2×10^3 cells were plated in each well of 96-well flat-bottomed plates 24 h prior to the treatments. […] After different experimental incubation time points (24, 48, and 72 h), 20 μL of MTS reagent was added in each well and further incubated for 1 h at 37° C. before measuring the absorbance at 490 nm using BioTEK microplate reader. Each experiment was performed in quadruplicates."}, "HT-29 [2]": {"tested_on": "HT-29", "assay": "In vitro cytotoxicity assay (MTS)", "conditions": "Homo sapiens", "experimental": "as §2, §3"}, "[3]": {"conditions": "literature [5]; cited from earlier work"}, "[4]": {"assay": "Water solubilized level of drug", "type": "physicochemical"}, "[5]": {"assay": "In vitro drug release, dialysis-bag diffusion technique", "type": "physicochemical", "conditions": "dialysis MWCO 3.5 kDa, 4% albumin in water, 37° C., n=3", "description": "[…] The concentrations of SN-38 in collected samples were determined by UV-Vis spectrophotometer (BioTEK, Winooski, VT, USA). Detection was performed at a wavelength of 383 nm. […] All experiments were carried out in triplicate."}, "HT-29 [6]": {"tested_on": "HT-29", "assay": "Western blot of cleaved PARP, γ-H2AX, cleaved caspase-3 and -7", "type": "cell-based, human", "conditions": "HT-29, 10 μM, 6 h", "description": "(§1) In brief, 1×10^6 cells were plated in each well of 6-well plates 24 h prior to the treatments. […] The cells of 3 controls received only 0.1% DMSO, 10 μM A83, and 10 μM PM26/A83, respectively. Protein extracts for western blot analysis were prepared using commercial RIPA lysis buffer (ThermoFisher Scientific, Canada) supplemented with a cocktail of protease inhibitors (Millipore Sigma, Canada). Protein concentrations were measured using the BCA assay kit (Pierce/ThermoFisher Scientific, Canada) according to the manufacturer's protocol. Equal concentrations of protein were separated by SDS-PAGE and transferred to nitrocellulose membranes. After blocking with 5% skimmed milk in TBST (50 mM Tris-HCl, pH 7.4, 150 mM NaCl, and 0.1% Tween 20), the blots were incubated with the respective primary antibodies (cleaved caspase-3 cat #9661S, cleaved caspase-7 cat #9491S, PARP cat #9542S, phospho-histone H2A.X (Ser139) cat #9718S) and secondary antibody (HRP-linked anti-rabbit IgG cat #7074S) purchased from Cell Signaling Technology (Whitby, ON, Canada). The protein bands were detected using an enhanced chemiluminescence (ECL) based system (Pierce/ThermoFisher Scientific, Canada). The band intensities for the PNKP protein were quantified by performing optical density analysis using ImageJ software. Each experiment was carried out in triplicate."}, "HCT116 [7]": {"tested_on": "HCT116", "assay": "Western blot of cleaved PARP, γ-H2AX, cleaved caspase-3 and -7", "type": "cell-based, human", "conditions": "HCT116, 10 μM, 6 h", "description": "as §1"}, "healthy CD-1 mice": {"tested_on": "healthy CD-1 mice", "conditions": "up to 50 mg/kg intravenously, Cremophor EL: Ethanol or micellar formulation [20]; cited from earlier work"}},
  "note": "Like-named read-outs stand apart in the source and are kept apart here.",
  "data": [
    {"compound": "CCc1c2c(nc3ccc(OC(=O)N4CCC(N5CCCCC5)CC4)cc13)-c1cc3c(c(=O)n1C2)COC(=O)[C@]3(O)CC", "note": "[Irinotecan, 7-ethyl-10-[4-(1-piperidino)-1-piperidino] carbonyloxycamptothecin]", "values": [
      {"measurement": "IC50", "setting": "HCT116 [1]; Homo sapiens, HCT-116, 24 h, read-out: IC50 (relative IC50)", "value": "7.3 ± 3.7", "unit": "µM"},
      {"measurement": "IC50", "setting": "HCT116 [1]; Homo sapiens, HCT-116, 48 h, read-out: IC50 (relative IC50)", "value": "3.9 ± 1.7", "unit": "µM"},
      {"measurement": "IC50", "setting": "HCT116 [1]; Homo sapiens, HCT-116, 72 h, read-out: IC50 (relative IC50)", "value": "6.3 ± 1.6", "unit": "µM"},
      {"measurement": "IC50", "setting": "HT-29 [2]; HT-29, 24 h, read-out: IC50 (relative IC50)", "value": "10.7 ± 4.5", "unit": "µM"},
      {"measurement": "IC50", "setting": "HT-29 [2]; HT-29, 48 h, read-out: IC50 (relative IC50)", "value": "11.6 ± 4.3", "unit": "µM"},
      {"measurement": "IC50", "setting": "HT-29 [2]; HT-29, 72 h, read-out: IC50 (relative IC50)", "value": 7.1, "unit": "µM"}
    ]},
    {"compound": "CCc1c2c(nc3ccc(O)cc13)-c1cc3c(c(=O)n1C2)COC(=O)[C@]3(O)CC", "note": "[SN-38, (S)-4, 11-Diethyl-4,9-di-OH-1, 12-dihydro-4H-2-oxa-6,12α-diaza-dibenzo[b, h]fluorene-3,13-dione]", "values": [
      {"measurement": "potency relative to the prodrug irinotecan", "setting": "[3]", "value": "1,000 times"},
      {"measurement": "water solubilized level of SN-38", "setting": "[4]; unconjugated SN-38", "value": 25, "unit": "µg/mL"},
      {"measurement": "IC50", "setting": "HCT116 [1]; read-out: IC50 (relative IC50), HCT116, 24 h, as TOP1 inhibitor concentration, A83B4C63 10 μM where present, n = 4", "value": "0.14 ± 0.04", "unit": "µM"},
      {"measurement": "IC50", "setting": "HCT116 [1]; read-out: IC50 (relative IC50), HCT116, 48 h, as TOP1 inhibitor concentration, A83B4C63 10 μM where present, n = 4", "value": "0.05 ± 0.01", "unit": "µM"},
      {"measurement": "IC50", "setting": "HCT116 [1]; read-out: IC50 (relative IC50), HCT116, 72 h, as TOP1 inhibitor concentration, A83B4C63 10 μM where present, n = 4", "value": "0.02 ± 0.01", "unit": "µM"},
      {"measurement": "release of SN-38", "setting": "[5]; over 6 h", "value": "96.46±1.43", "unit": "%"},
      {"measurement": "release of A83B4C63", "setting": "[5]; over 24 h", "value": "99.81±0.01", "unit": "%"}
    ]},
    {"compound": "COc1ccccc1C(O)C1C=CC2C(=O)N(Cc3cccc4ccccc34)C(=O)C2N1Nc1ccc([N+](=O)[O-])cc1", "note": "(centres unmarked) [A83B4C63, 2-[hydroxy (2-methoxyphenyl)methyl]-6-(naphthalene-1-ylmethyl)-1-[(4-nitrophenyl)amino]-2H, 4aH, 7aH-pyrrolo[3,4-b]pyridine-5,7-dione]", "values": [
      {"measurement": "solubility", "setting": "[4]; water, without micelles", "value": 1, "unit": "µM"},
      {"measurement": "apoptotic signaling", "setting": "HT-29 [6]", "value": "no apoptotic signaling"},
      {"measurement": "apoptotic signaling", "setting": "HCT116 [7]", "value": "no apoptotic signaling"},
      {"measurement": "IC50", "setting": "HCT116 [1]; Homo sapiens, HCT-116, read-out: relative IC50 of PNKP inhibitor alone", "value": "> 40", "unit": "µM"},
      {"measurement": "release of A83B4C63", "setting": "[5]; over 6 h", "value": "98.81±2.09", "unit": "%"},
      {"measurement": "IC50", "setting": "HT-29 [2]; HT-29, read-out: relative IC50 of PNKP inhibitor alone", "value": "> 40", "unit": "µM"},
      {"measurement": "systemic and tissue toxicity", "setting": "healthy CD-1 mice", "value": "neither systemic nor tissue toxicity"}
    ]}
  ]
}
